Reference: US20180185302A1, “METHODS FOR DOWNREGULATING APOBEC3B” (Regents of the University of Minnesota, priority 2015, published 2018)
“Also recorded” adds a separate entry of the source. Residues, ends and D or L forms follow the SMILES beside them. *: point of attachment. Cbz = O=C(OCc1ccccc1)*

Key:
[1] = system: APOBEC3B; assay: inhibitor pretreatment before PMA-induced APOBEC3B upregulation in MCF10A cells (RT-qPCR); assay type: cell-based, human; settings: for suppression of PMA-induced APOBEC3B mRNA induction: 30-minute pretreatment with inhibitor, then PMA 25 ng/mL six hours
Procedure: PMA is a well-known agonist of PKC, but it also affects other cellular processes. To determine whether APOBEC3B induction by PMA occurs through PKC signal transduction or an alternative mechanism, we leveraged a panel of existing PKC inhibitors that each vary with respect to class selectivity. MCF10A cells were pre-treated for 30 minutes with varying concentrations of the pan-PKC inhibitor Gö6983 (Gschwendt et al., FEBS Lett. 392:77-80, 1996) and then treated for six hours with PMA (25 ng/mL). […] As additional controls, MCF10A cells were pretreated in parallel with the phosphoinositol 3 kinase (PI3K) inhibitor, LY294002, and the mitogen-activated protein kinase kinase (MEK) inhibitor, U0126, prior to PMA induction (FIGS. 2B and 2C).
(§1) For induction experiments, 2.5×10^5 cells were plated in a 6-well plate 1 day prior to drug treatment. PMA was then added to the media and incubated at 37° C. with 5% CO2 for six hours unless otherwise indicated. Cells were harvested, RNA was extracted, and RT-qPCR was performed as previously reported (Refsland et al. 2010, Nucleic Acids Res 38:4274-4284). For experiments utilizing inhibitors, cells were pretreated with inhibitors 30 minutes prior to PMA induction (25 ng/mL). PMA (Thermo Fisher Scientific, Inc., Waltham, Mass.), cyclohexamide (Acros Organics, Thermo Fisher Scientific, Inc., Waltham, Mass.), Gö6983 (Cayman Chemical co., Ann Arbor, Mich.), LY294002 (EMD Chemicals, Merck KGaA, Darmstadt, Germany), U0126 (EMD Chemicals, Merck KGaA, Darmstadt, Germany), AEB071 (Medchemexpress, Monmouth Junction, N.J.), Gö6976 (Enzo Life Sciences, Inc., Farmingdale, N.Y.), BAY 11-7082 (R&D Systems, INc., Minneapolis, Minn.), and MG132 (Thermo Fisher Scientific, Inc., Waltham, Mass.) were stored as recommended. NIKi/Compound 31 was synthesized as described (Li et al., 2013, Bioorganic & Medicinal Chemistry Letters 23:1238-1244).

[2] = system: MCF10A cells; assay: morphology and viability of MCF10A cells under inhibitor; assay type: cell-based, human; settings: low concentrations of Gö6983 (5 μM range), data not shown
Procedure: PMA is a well-known agonist of PKC, but it also affects other cellular processes. To determine whether APOBEC3B induction by PMA occurs through PKC signal transduction or an alternative mechanism, we leveraged a panel of existing PKC inhibitors that each vary with respect to class selectivity. MCF10A cells were pre-treated for 30 minutes with varying concentrations of the pan-PKC inhibitor Gö6983 (Gschwendt et al., FEBS Lett. 392:77-80, 1996) and then treated for six hours with PMA (25 ng/mL). […] APOBEC3B was suppressed to background levels with 5 μM Gö6983, as well as higher concentrations (FIG. 2A). […] As additional controls, MCF10A cells were pretreated in parallel with the phosphoinositol 3 kinase (PI3K) inhibitor, LY294002, and the mitogen-activated protein kinase kinase (MEK) inhibitor, U0126, prior to PMA induction (FIGS. 2B and 2C).

[3] = system: TNFα; assay: TNFα mRNA expression in PMA-treated MCF10A cells (RT-qPCR); assay type: cell-based, human; settings: titration of inhibitor, compared with APOBEC3B inhibition
Procedure: FIG. 3. Non-canonical NFκB signaling is responsible for APOBEC3B upregulation by PMA. […] MCF10A cells were treated with PMA following a 30-minute pretreatment with the indicated concentrations of each inhibitor. APOBEC3B mRNA expression is reported as the mean of three independent RT-qPCR reactions normalized to TBP (error bars report SD from triplicate assays). (C) Histogram depicting NFκB subunit mRNA levels in MCF10A cells treated with PMA or vehicle control. Expression was determined by RNA-seq and is reported as FKPM and normalized to TBP. […] MCF10A cells were treated with PMA following treatment with varying concentrations of TPCA-1. TNFα (light) and APOBEC3B (dark) mRNA levels are reported as the mean of three independent RT-qPCR reactions normalized to TBP (error bars report SD from triplicate assays). The dotted lines denote previously reported in vitro IC50 values for IKKα and IKKβ inhibition by TPCA-1 (Podolin et al., 2005, J Pharmacol Exp Ther. 312:373-381). (E) Histogram showing the kinetics of NFKBIA upregulation PMA. MCF10A cells were treated with PMA for the indicated times and mRNA values were quantified as in FIG. 3A. […]
Canonical signaling is known to require IKKβ, whereas non-canonical NFκB signaling is strictly dependent on IKKα-catalyzed phosphorylation of p100. […] As an additional control, TNFα, which is regulated by the canonical pathway, was analyzed.

[4] = system: IKKβ (canonical) over IKKα (non-canonical); settings: reported in vitro IC50 values (Podolin et al., 2005); cited from earlier work
[5] = system: MCF-7 xenograft tumor; assay: MCF-7 xenograft model for tamoxifen resistance; assay type: in vivo, mice
From the text: Human cancer cell lines, such as those listed above, and many others, upon engraftment into mice (e.g., subcutaneously, intraperotoneally, or otherwise), provide model systems for human tumor evolution, heterogeneity, and drug resistance. For instance, the estrogen-receptor positive breast cancer cell line MCF7L is a model for endocrine therapy and resistance.
The MCF-7 system may be adapted for evaluating APOBEC3 mutagenesis and drug resistance by creating derivative lines expressing low APOBEC3B (e.g., shRNA transduced) and high APOBEC3B (empty vector transduced) using lentivirus transduction followed by selection with 1 μg/ml puromycin for one week (Burns et al., 2013, Nature 494:366-370) and determine whether endogenous APOBEC3B contributes to the development of tamoxifen resistance. Five-million engineered cells are injected subcutaneously (xenografted) into athymic/ovariectomized nude-Foxnlnu (4-5 weeks old, The Jackson Laboratory, Bar Harbor, Me.). Each animal's drinking water is supplemented with 1 μM estradiol to provide continuous hormonal stimulation. The xenografted cells form large tumors within 150 days post-engraftment and depleting endogenous APOBEC3B causes a modest delay in tumor growth (dark square versus dark circle symbols in FIG. 8).

[6] = system: APOBEC3B; assay: PMA induction of APOBEC3B mRNA in MCF10A cells (RT-qPCR); assay type: cell-based, human; settings: 10 μg/mL cyclohexamide with PMA
Procedure: A panel of immortalized normal human epithelial cells lines and breast cancer cell lines was treated with PMA or equal amounts of DMSO as a negative control, and previously validated reverse transcription quantitative PCR (RT-qPCR) assays were used to measure mRNA levels of all eleven human APOBEC family members. APOBEC3B mRNA was induced specifically by PMA treatment of several lines including the immortalized normal breast epithelial cell line MCF10A (FIG. 1A and FIG. 6). Under standard cell culture conditions, MCF10A expresses low levels of APOBEC3B and APOBEC3F, even lower levels of APOBEC3G and APOBEC3H, high levels of APOBEC3C, and undetectable levels of all other APOBEC family members.
APOBEC3B was induced with as little as 1 ng/mL PMA, and its induction was dose responsive and near maximal at 25 ng/mL PMA (FIG. 1B, histogram). APOBEC3B mRNA levels correlated with a rise in steady-state protein levels as measured by immunoblotting with a rabbit anti-APOBEC3B monoclonal antibody (described in U.S. Provisional Patent Application No. 62/186,109. filed Jun. 29, 2015) and with enzymatic activity as measured by a gel-based single-stranded DNA cytosine deamination assay (FIG. 1B). […] APOBEC3B protein and activity levels lagged shortly behind mRNA levels and persisted through the duration of the time course (FIG. 1C, immunoblot and polyacrylamide gel). APOBEC3B upregulation may be a direct result of signal transduction as the kinetics of upregulation were not affected by simultaneously treating cells with the protein translation inhibitor cyclohexamide (FIG. 1D).
as §1

Question: With CN(C)CCCn1cc(C2=C(c3c[nH]c4ccccc34)C(=O)NC2=O)c2ccccc21 [BIM-1, bisindolylmaleimide-1] as the compound, how does the “suppression of PMA-induced APOBEC3B mRNA induction” value (shortened to “suppression”) [1] read?
Answer: inhibited; also recorded: nearly identical dose dependent suppression

Question: For Cn1c2ccccc2c2c3c(c4c5ccccc5n(CCC#N)c4c21)CNC3=O [Gö6976], which “suppression” value [1] is on record?
Answer: inhibited

Question: Which “suppression” value [1] does the source give for CC(C)C[C@@H](C=O)NC(=O)[C@H](CC(C)C)NC(=O)[C@H](CC(C)C)NC(=O)OCc1ccccc1 [MG132] (Cbz-Leu-Leu-Leu-aldehyde) here?
Answer: dose responsive inhibition; also recorded: decreased in a dose dependent manner

Question: With Cc1ccc(S(=O)(=O)/C=C/C#N)cc1 [BAY 11-7082] as the compound, how does the “suppression” value [1] read?
Answer: dose responsive inhibition; also recorded: strong dose-responsive drops

Question: With COc1ccc2c(c1)c(C1=C(c3c[nH]c4ccccc34)C(=O)NC1=O)cn2CCCN(C)C [Gö6983] as the compound, how does the “morphological defects or viability issues” value [2] read?
Answer: No morphological defects or viability issues

Question: What about the “suppression” value [1] of the same compound?
Answer: inhibited; also recorded: dose responsive suppression

Question: What about the “concentration that suppressed APOBEC3B to background levels” value ([1]; 30-minute pretreatment, PMA 25 ng/mL six hours) of the same compound?
Answer: 5 µM

Question: For NC(=O)Nc1sc(-c2ccc(F)cc2)cc1C(N)=O [TPCA-1], which “inhibition of TNFα expression” value [3] is on record?
Answer: inhibited by much lower concentrations

Question: What about the “selectivity for IKKβ (canonical) over IKKα (non-canonical)” value [4] of the same compound?
Answer: 22 fold

Question: What about the “suppression” value [1] of the same compound?
Answer: near the IC50 for IKKα, not IKKβ; also recorded: inhibited closer to the reported IC50 of IKKα

Question: With N#CC(=C(/N)Sc1ccccc1N)/C(C#N)=C(\N)Sc1ccccc1N [U0126] as the compound, how does the “suppression” value [1] read?
Answer: not and no suppression

Question: For CC/C(=C(\c1ccccc1)c1ccc(OCCN(C)C)cc1)c1ccccc1 [tamoxifen], which “tumor growth of MCF-7 derivative lines” value ([5]; 500 μg 5 days/week subcutaneous injection, APOBEC3B high and low lines, mice) is on record?
Answer: arrested the growth of both derivative lines for several months

Question: What about the “development of resistance, cells expressing high levels of APOBEC3B” value ([5]; 500 μg 5 days/week subcutaneous, year-long experiment) of the same compound?
Answer: invariably developed resistance

Question: What about the “development of resistance, APOBEC3B low cell masses” value ([5]; 500 μg 5 days/week subcutaneous, year-long experiment, n=5 animals/condition) of the same compound?
Answer: only one of the APOBEC3B low cell masses became resistant

Question: Which “effect on kinetics of PMA-induced APOBEC3B upregulation” value [6] does the source give for C[C@@H]1C[C@@H]([C@H](O)CC2CC(=O)NC(=O)C2)C(=O)[C@@H](C)C1 [cyclohexamide] here?
Answer: not affected
